Measured values taken from US12637440B2, “Amide derivative useful as diacylglycerol acyltransferase 2 inhibitor, and use thereof” (LG CHEM, LTD., priority 2019, dated 2026).

Molecular target: T1, Recombinant human DGAT2 protein (Homo sapiens, UniProt Q96PD7)
T1 construct: FLAG (DYKDDDDK); (N); made in house; host or cells: Sf-21 insect cells (BacPAK baculovirus system); used as a membrane preparation
T1 sequence (Q96PD7 1-388): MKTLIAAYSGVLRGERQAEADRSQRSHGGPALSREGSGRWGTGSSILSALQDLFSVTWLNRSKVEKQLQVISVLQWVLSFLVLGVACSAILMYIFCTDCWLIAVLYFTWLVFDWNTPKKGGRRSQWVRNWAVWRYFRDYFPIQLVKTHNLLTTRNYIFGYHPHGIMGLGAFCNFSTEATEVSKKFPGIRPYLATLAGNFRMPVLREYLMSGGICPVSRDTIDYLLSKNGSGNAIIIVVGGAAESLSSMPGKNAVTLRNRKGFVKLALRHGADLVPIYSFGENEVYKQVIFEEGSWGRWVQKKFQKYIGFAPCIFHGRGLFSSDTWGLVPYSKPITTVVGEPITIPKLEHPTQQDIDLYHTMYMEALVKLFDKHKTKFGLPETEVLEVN
Test: Measurement of inhibitory effect against DGAT2 enzyme activity (SPA, Phospholipid FlashPlate, [14C]-TG production)
Assay type: biochemical
Conditions: concentration inhibiting [14C]-labeled triacyl glycerol (TG) production by 50%; 2 μg DGAT2-membrane protein from Sf-21 cells, 37° C.
How it was run: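 Membranes from Sf-21 cells expressing human DGAT2 (2 μg) preincubated 20 min at 37 °C with compound (3 nM–10 μM, 1% DMSO) in HEPES/MgCl2/BSA with 50 μM 1,2-dioleoyl glycerol, then 1 μM [14C]oleoyl-CoA for 15 min. [14C]-TG measured by SPA FlashPlate; inhibition as % of untreated control.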

IC50	Structure (SMILES)
1300 nM	CCOc1ccccc1O[C@@H]1CCCN(c2cncc(NC(=O)CC(C)(C)C(=O)O)n2)C1 [Example 22, (R)-4-((6-(3-(2-ethoxyphenoxy)piperidin-1-yl)pyrazin-2-yl)amino)-2,2-dimethyl-4-oxobutanoic acid]
42 nM	CCOc1ccccc1O[C@@H]1CCCN(c2cncc(NC(=O)[C@@H]3CCCN(c4cccc(CC(C)(C)C(=O)O)c4)C3)n2)C1 [Example 85, 3-(3-((R)-3-((6-((R)-3-(2-ethoxyphenoxy)piperidin-1-yl)pyrazin-2-yl)carbamoyl)piperidin-1-yl)phenyl)-2,2-dimethylpropanoic acid]
8 nM	CCOc1ccccc1O[C@@H]1CCCN(c2cncc(NC(=O)C3CCN(c4ncc(CC)cn4)CC3)n2)C1 [Example 18, (R)—N-(6-(3-(2-ethoxyphenoxy)piperidin-1-yl)pyrazin-2-yl)-1-(5-ethylpyrimidin-2-yl)piperidine-4-carboxamide]
